Here are results for one compound from US20220024910A1 (published 2022).

In general, melting point refers to the temperature, or range, at which the solid turns liquid. With `Cc1c(C(=O)NN2CCS(=O)(=O)CC2)nn(-c2ccc(Cl)cc2Cl)c1-c1ccc(C#CCCC#N)cc1`, the melting point lay in the range of 278 to 280 °C.
